From patent publication US20250100977A1, “MERCAPTOPYRIMIDINE COMPOUNDS THAT INHIBIT NONHOMOLOGOUS END JOINING AND METHODS THEREOF” (INDIAN INSTITUTE OF SCIENCE, priority 2021, published 2025)
Read-outs that look alike come from different tables or passages of the source.

What was measured:
[1] = tested on: Molt3; assay: Cytotoxicity in Molt3; format: cell-based; conditions: Table 2; read-out: IC50 in cancer cell lines, Molt3
Method: (§1) Ligase IV specificity of the compounds of the present invention inside the cells were also determined using Ligase IV knock out (KO) cell line N114 compared to the wild type Nalm6 (Table 2, FIGS. 5C, D, E and F). […] Table 1 showing IC50 of SCR7 derivatives in cancer cell lines Nalm6 and HeLa. IC50 was calculated using GraphPad Prism software from the percentage of viable cells following treatment with the compounds at 48 h. Table 2 showing IC50 of SCR116 and SCR132 in a panel of 16 cancer cell lines.

[2] = tested on: Ligase IV knock out (KO) cell line N114; conditions: Vartak et al. 2018, cited from earlier work
[3] = tested on: cancer cell lines, particularly leukemia; conditions: background statement; cited from earlier work
[4] = tested on: Ligase IV knock out (KO) cell line N114; assay: Cytotoxicity in Ligase IV knock out cell line N114; format: cell-based; conditions: Table 2, 48 h, read-out: IC50 in cancer cell lines, N114
Method: as §1

[5] = tested on: MCF7; assay: Cytotoxicity in MCF7; format: cell-based; conditions: Table 2; read-out: IC50 in cancer cell lines, MCF7
Method: as §1

[6] = target: T1, DNA Ligase IV/XRCC4 (Homo sapiens, UniProt P49917); conditions: 200 μM; background statement; cited from earlier work
T1 construct: made in house; host or cells: bacteria
T1 sequence (P49917 whole entry): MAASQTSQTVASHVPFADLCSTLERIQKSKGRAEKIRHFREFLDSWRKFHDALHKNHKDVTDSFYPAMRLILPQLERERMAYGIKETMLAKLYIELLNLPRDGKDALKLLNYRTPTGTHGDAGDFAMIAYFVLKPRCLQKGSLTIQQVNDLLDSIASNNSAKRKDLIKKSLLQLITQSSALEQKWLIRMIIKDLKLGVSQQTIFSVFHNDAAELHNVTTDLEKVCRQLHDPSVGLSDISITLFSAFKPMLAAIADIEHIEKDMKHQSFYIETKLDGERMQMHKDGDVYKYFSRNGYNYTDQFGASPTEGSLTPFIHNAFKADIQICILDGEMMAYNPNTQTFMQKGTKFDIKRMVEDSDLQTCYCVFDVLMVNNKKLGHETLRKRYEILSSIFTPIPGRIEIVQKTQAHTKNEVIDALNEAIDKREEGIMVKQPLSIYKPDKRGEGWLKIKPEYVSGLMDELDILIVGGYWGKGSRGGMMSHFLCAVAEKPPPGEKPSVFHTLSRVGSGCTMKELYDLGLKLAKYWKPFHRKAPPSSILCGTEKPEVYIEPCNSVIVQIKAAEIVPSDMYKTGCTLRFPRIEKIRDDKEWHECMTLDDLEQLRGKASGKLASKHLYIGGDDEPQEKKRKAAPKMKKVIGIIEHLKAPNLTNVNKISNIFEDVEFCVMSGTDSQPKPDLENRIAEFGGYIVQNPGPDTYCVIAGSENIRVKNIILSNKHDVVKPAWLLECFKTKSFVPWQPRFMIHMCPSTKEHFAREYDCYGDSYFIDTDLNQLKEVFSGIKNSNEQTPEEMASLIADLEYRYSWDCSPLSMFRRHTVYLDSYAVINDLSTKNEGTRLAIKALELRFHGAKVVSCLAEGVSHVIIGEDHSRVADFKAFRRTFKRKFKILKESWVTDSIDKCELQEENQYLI
T1 sequence (Q13426 whole entry partner): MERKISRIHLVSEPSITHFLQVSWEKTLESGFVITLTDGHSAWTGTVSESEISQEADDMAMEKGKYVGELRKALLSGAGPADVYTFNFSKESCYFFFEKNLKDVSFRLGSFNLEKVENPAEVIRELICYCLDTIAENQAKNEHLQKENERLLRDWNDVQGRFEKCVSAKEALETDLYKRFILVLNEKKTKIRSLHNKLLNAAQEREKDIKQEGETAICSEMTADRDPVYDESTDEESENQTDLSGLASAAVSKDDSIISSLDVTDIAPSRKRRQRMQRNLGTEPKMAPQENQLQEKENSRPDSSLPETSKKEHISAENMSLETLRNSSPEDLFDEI

[7] = tested on: Nalm6; assay: Cytotoxicity (viable cells) in Nalm6; format: cell-based; conditions: Table 2; read-out: IC50 in cancer cell lines, Nalm6
Method: (§2) The compounds of the present invention were screened initially in leukemic and cervical cancer cell lines (Table 1). […] In cervical cancer cell line HeLa, IC50 was 5 and 2 μM, respectively for SCR116 and SCR132 (FIG. 5A-B).
as §1

[8] = tested on: U118; assay: Cytotoxicity in U118; format: cell-based; conditions: Table 2; read-out: IC50 in cancer cell lines, U118
Method: as §1

[9] = tested on: CEM; assay: Cytotoxicity in CEM; format: cell-based; conditions: Table 2; read-out: IC50 in cancer cell lines, CEM
Method: as §1

[10] = tested on: LN229; assay: Cytotoxicity in LN229; format: cell-based; conditions: Table 2; read-out: IC50 in cancer cell lines, LN229
Method: as §1

[11] = tested on: SUDHL8; assay: Cytotoxicity in SUDHL8; format: cell-based; conditions: Table 2; read-out: IC50 in cancer cell lines, SUDHL8
Method: as §1

[12] = tested on: Reh; assay: Cytotoxicity in Reh; format: cell-based; conditions: Table 2; 48 h; read-out: IC50 in cancer cell lines, Reh
Method: as §2, §1

[13] = tested on: HCT116; assay: Cytotoxicity in HCT116; format: cell-based; conditions: Table 2; read-out: IC50 in cancer cell lines, HCT116
Method: as §1

[14] = tested on: HeLa; assay: Cytotoxicity (viable cells) in HeLa; format: cell-based; conditions: Table 2; read-out: IC50 in cancer cell lines, HeLa
Method: as §2, §1

[15] = tested on: L1210; assay: Cytotoxicity in L1210; format: cell-based; conditions: Table 2; read-out: IC50 in cancer cell lines, L1210
Method: as §1

[16] = Bioavailability in mice serum by HPLC; conditions: intraperitoneal, 20 mg/kg body weight
Method: The bioavailability of the compounds of the present disclosure were analysed in mice serum at different time points (0.5, 1, 2, 4, 6, 8, 10, 12, 24 and 48 h) by HPLC at 232 nm wavelength (FIGS. 10N-P).

[17] = tested on: EAC; assay: Cytotoxicity in EAC; format: cell-based, mice; conditions: Table 2; read-out: IC50 in cancer cell lines, EAC
Method: as §1

[18] = tested on: Raji; assay: Cytotoxicity in Raji; format: cell-based; conditions: Table 2; read-out: IC50 in cancer cell lines, Raji
Method: as §1

[19] = tested on: Molt4; assay: Cytotoxicity in Molt4; format: cell-based, human; conditions: Table 2; read-out: IC50 in cancer cell lines, Molt4
Method: as §1

[20] = tested on: Supt1; assay: Cytotoxicity in Supt1; format: cell-based; conditions: Table 2; read-out: IC50 in cancer cell lines, Supt1
Method: as §1

O=c1[nH]c(=S)[nH]c(N=Cc2ccccc2)c1N=Cc1ccccc1 [SCR7, reference compound]
IC50 [1]: 79.1 µM | IC50 [2]: > 250 µM | Fold increased IC50 in N114 ([2]; vs Nalm6): 5 fold | IC50 [3]: > 250 µM | IC50 [4]: > 250 µM | IC50 [5]: 40 µM | Inhibition of DNA Ligase IV [6]: 50% | IC50 [7]: 50 µM | IC50 [8]: 151 µM | IC50 [9]: > 200 µM | IC50 [10]: 59.9 µM | IC50 [11]: 100 µM | IC50 [12]: > 250 µM | IC50 [13]: 302 µM | IC50 [14]: 44 µM | IC50 [15]: 370 µM | t1/2 [16]: 1 h | IC50 [17]: 132 µM | IC50 [18]: > 250 µM | IC50 [19]: 182 µM | IC50 [20]: 109 µM
